± gives the expanded uncertainty stated by the source.
Legend:
[1] = refractive index (Na D-line) (dimensionless); conditions: 298.15 K; 101.33 kPa; Liquid; Standard Abbe refractometry
[2] = 101 kPa, Liquid; for speed of sound: Sing-around technique in a fixed-path interferometer; for mass density: Vibrating tube method
[3] = xn = mol fraction of the nth substance listed; conditions: 101 kPa, Liquid; for mass density: Vibrating tube method; for speed of sound: fixed-path interferometer

CC(C)CC(C)(C)C [2,2,4-trimethylpentane]
Conditions	refractive index
[1]	1.38901 ± 0.00072

[2]
Conditions	mass density [kg/m3]	speed of sound [m/s]
298.15 K	687.68 ± 0.18	1082.7 ± 1.2
308.15 K	679.45 ± 0.18	1041.1 ± 1.2
318.15 K	671.3 ± 0.18	1000.1 ± 1.2
328.15 K	663.17 ± 0.18	959.4 ± 1.2

CC(C)CC(C)(C)C [2,2,4-trimethylpentane] + Cc1ccccc1
[3]
Conditions	mass density, 298.15 K [kg/m3]	mass density, 308.15 K [kg/m3]	mass density, 318.15 K [kg/m3]	mass density, 328.15 K [kg/m3]	speed of sound, 298.15 K [m/s]	speed of sound, 308.15 K [m/s]	speed of sound, 318.15 K [m/s]	speed of sound, 328.15 K [m/s]
x1 = 0.2055	811.87 ± 0.14	802.88 ± 0.15	793.92 ± 0.15	784.96 ± 0.15	1235.8 ± 1.2	1193.6 ± 1.2	1151.9 ± 1.2	1110.8 ± 1.2
x1 = 0.403	772.32 ± 0.15	763.58 ± 0.16	754.88 ± 0.16	746.18 ± 0.16	1184.2 ± 1.2	1142.3 ± 1.2	1100.9 ± 1.2	1060.1 ± 1.2
x1 = 0.6062	738.6 ± 0.16	730.06 ± 0.17	721.58 ± 0.17	713.11 ± 0.17	1142.4 ± 1.2	1100.5 ± 1.2	1059.3 ± 1.2	1018.7 ± 1.2
x1 = 0.8001	711.48 ± 0.17	703.11 ± 0.17	694.81 ± 0.18	686.51 ± 0.18	1110 ± 1.2	1068.4 ± 1.2	1027.2 ± 1.2	986.7 ± 1.2

CCCCO [butan-1-ol]
Conditions	refractive index
[1]	1.39733 ± 0.00072

[2]
Conditions	mass density [kg/m3]	speed of sound [m/s]
298.15 K	805.74 ± 0.15	1239.9 ± 1.2
308.15 K	798.07 ± 0.15	1206.6 ± 1.2
318.15 K	790.38 ± 0.15	1173.4 ± 1.2
328.15 K	782.58 ± 0.15	1140.4 ± 1.2

CCCCO [butan-1-ol] + CC(C)CC(C)(C)C
[3], x2 = 0
Conditions	mass density [kg/m3]	speed of sound [m/s]
298.15 K	805.74 ± 0.15	1239.9 ± 1.2
308.15 K	798.07 ± 0.15	1206.6 ± 1.2
318.15 K	790.38 ± 0.15	1173.4 ± 1.2
328.15 K	782.58 ± 0.15	1140.4 ± 1.2

Cc1ccccc1 [toluene]
Conditions	refractive index
[1]	1.49393 ± 0.00072

[2]
Conditions	mass density [kg/m3]	speed of sound [m/s]
298.15 K	862.19 ± 0.13	1305.4 ± 1.2
308.15 K	852.88 ± 0.14	1262.7 ± 1.2
318.15 K	843.6 ± 0.14	1220.4 ± 1.2
328.15 K	834.29 ± 0.14	1178.6 ± 1.2

Cc1ccccc1 [toluene] + CCCCO
[3], x1 = 1
Conditions	mass density [kg/m3]	speed of sound [m/s]
298.15 K	862.19 ± 0.13	1305.4 ± 1.2
308.15 K	852.88 ± 0.14	1262.7 ± 1.2
318.15 K	843.6 ± 0.14	1220.4 ± 1.2
328.15 K	834.29 ± 0.14	1178.6 ± 1.2

From the NIST ThermoML archive (doi:10.1016/j.jct.2013.05.009)
